Data: patent publication US20250101027A1, “ORGANIC COMPOUND, LIGHT-EMITTING DEVICE, LIGHT-EMITTING APPARATUS, AND ELECTRONIC APPLIANCE” (SEMICONDUCTOR ENERGY LABORATORY CO., LTD., priority 2023, published 2025)
≈ marks a conversion by molar mass, not a printed value.

Test: Solubility test in water by LC-MS analysis
Format: physicochemical
Conditions: for peak area value derived from the compound through the LC-MS analysis (solubility test in water): ultrasonic waves five minutes, filtrate diluted five times with acetonitrile, one atmosphere, room temperature
Method: Next, a solubility test of PrdP2Phen was performed. Note that the solubility test was conducted at a pressure of one atmosphere, at room temperature (RT).
In the LC-MS analysis, liquid chromatography (LC) separation was carried out with ACQUITY UPLC manufactured by Waters Corporation, and MS analysis (mass spectrometry) was carried out with Xevo G2 Tof MS manufactured by Waters Corporation. Acquity UPLC BEH C8 (2.1×100 mm, 1.7 μm) was used as a column for the LC separation. Acetonitrile was used for Mobile Phase A and a 0.1% aqueous solution of formic acid was used for Mobile Phase B. The injection amount of the sample was 5.0 μL. Note that in the analysis, the wavelength of a photodiode array detector was set to 263 nm±1 nm.
(§1) In a 5-mL sample bottle, I mg of PrdP2Phen was put and 1 mL of water was added thereto. This mixture was irradiated with ultrasonic waves for five minutes. This mixture was filtered through a membrane filter to remove the solid, and the resulting filtrate was diluted by five times with acetonitrile. The obtained solution was subjected to LC-MS analysis.
In a 5-mL sample bottle, 1 mg of Pyrrd-Phen was put and 2 mL of toluene was added thereto. This mixture was irradiated with ultrasonic waves for five minutes. After it was confirmed that the solid was completely dissolved, this solution was diluted by 5 times with acetonitrile, whereby the concentration of the solution was adjusted to 100 mg/L. This solution was diluted with a 3:7 toluene-acetonitrile mixed solvent, whereby a solution with a concentration of 20 mg/L, a solution with a concentration of 10 mg/L, and a solution with a concentration of 5 mg/L were prepared. The prepared solutions were subjected to LC-MS analysis, and the peak area values derived from Pyrrd-Phen, which were obtained at the respective solution concentrations, were used to form calibration curves.
Next, the water solubility of Pyrrd-Phen was measured.
as §1, with “bottle, 1” for “bottle, I”, “of Pyrrd-Phen” for “of PrdP2Phen”
Next, a solubility test of Hid-PrdPPhen was performed. Note that the solubility test was conducted at a pressure of one atmosphere at room temperature (RT).
In the LC-MS analysis, liquid chromatography (LC) separation was carried out with ACQUITY UPLC manufactured by Waters Corporation, and MS analysis (mass spectrometry) was carried out with Xevo G2 Tof MS manufactured by Waters Corporation. Acquity UPLC BEH C8 (2.1×100 mm, 1.7 μm) was used as a column for the LC separation. […]

[1] = 1 mg in 1 mL of water, filtered

peak area value derived from the compound through the LC-MS analysis (solubility test in water) [1] | water solubility (in words) (conclusion from LC-MS solubility test) | solubility at 5 min (thermodynamic from solid, from calibration curve and LC-MS signal intensity, 1 mg in 1 mL of water, sonicated, filtered) | Compound
failed to be obtained | – | – | c1cc(-c2ccc(N3CCCC3)cc2)c2ccc3c(N4CC5CCCCC5C4)ccnc3c2n1 (stereo not shown) [Hid-PrdPPhen, 4-(2,3,3a,4,5,6,7,7a-octahydro-1H-isoindol-2-yl)-7-[4-(I-pyrrolidinyl)phenyl]-1,10-phenanthroline]
failed to be obtained | – | – | c1cc(-c2ccc(N3CCCC3)cc2)c2ccc3c(-c4ccc(N5CCCC5)cc4)ccnc3c2n1 [PrdP2Phen, 4,7-bis[4-(1-pyrrolidinyl)phenyl]-1,10-phenanthroline]
– | high water solubility | 0.059 mg/mL (≈ 185 µM) | c1cc(N2CCCC2)c2ccc3c(N4CCCC4)ccnc3c2n1 [Pyrrd-Phen, 4,7-di-1-pyrrolidinyl-1,10-phenanthroline]
